ChEMBL document CHEMBL2021790, “Pyridone methylsulfone hydroxamate LpxC inhibitors for the treatment of serious gram-negative infections” (J Med Chem, 2012)
≈ marks a conversion by molar mass, not a printed value.

Columns and labels:
Pseudomonas aeruginosa [1] = assay: Antimicrobial activity against wild type Pseudomonas aeruginosa PA01 after 16 to 20 hrs by 2-fold microbroth dilution method; type: functional
[2] = biological target: T1, UDP-3-O-acyl-N-acetylglucosamine deacetylase (Pseudomonas aeruginosa (strain ATCC 15692 / PAO1 / 1C / PRS 101 / LMG12228), UniProt P47205); assay: Inhibition of Pseudomonas aeruginosa LpxC expressed in Escherichia coli using UDP-3-O-N-acetylglucosamine substrate measured after 30 mins by mass spectrometry
T1 sequence (P47205 whole entry): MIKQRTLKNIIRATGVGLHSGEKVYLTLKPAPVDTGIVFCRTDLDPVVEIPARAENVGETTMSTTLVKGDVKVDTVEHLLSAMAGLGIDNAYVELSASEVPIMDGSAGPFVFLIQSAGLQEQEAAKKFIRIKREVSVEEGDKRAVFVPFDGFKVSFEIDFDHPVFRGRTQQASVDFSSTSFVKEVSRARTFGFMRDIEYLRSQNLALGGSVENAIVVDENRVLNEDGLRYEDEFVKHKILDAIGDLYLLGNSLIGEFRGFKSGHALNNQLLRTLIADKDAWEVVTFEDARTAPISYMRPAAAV

Pseudomonas aeruginosa [3] = assay: Antimicrobial activity against Pseudomonas aeruginosa PA3919 with (delta(mexAB-OprM)delta(mexXY)delta(MexZ) phenotype after 16 to 20 hrs by 2-fold microbroth dilution method; type: functional
Pseudomonas aeruginosa [4] = assay: microbe, parasite or virus in culture
Description: Antimicrobial activity against Pseudomonas aeruginosa after 16 to 20 hrs by 2-fold microbroth dilution method

Citrobacter freundii = assay: microbe, parasite or virus in culture
Description: Antimicrobial activity against Citrobacter freundii after 16 to 20 hrs by 2-fold microbroth dilution method

Klebsiella pneumoniae = assay: microbe, parasite or virus in culture
Description: Antimicrobial activity against Klebsiella pneumoniae after 16 to 20 hrs by 2-fold microbroth dilution method

Klebsiella aerogenes = assay: microbe, parasite or virus in culture
Description: Antimicrobial activity against Enterobacter aerogenes after 16 to 20 hrs by 2-fold microbroth dilution method

Acinetobacter sp. = assay: Antimicrobial activity against Acinetobacter sp. after 16 to 20 hrs by 2-fold microbroth dilution method; type: functional
Escherichia coli = assay: microbe, parasite or virus in culture
Description: Antimicrobial activity against Escherichia coli after 16 to 20 hrs by 2-fold microbroth dilution method

SMILES | MIC (Pseudomonas aeruginosa [1]) | IC50 [2] | MIC (Pseudomonas aeruginosa [3]) | MIC90 (Pseudomonas aeruginosa [4]) | MIC90 (Citrobacter freundii) | MIC90 (Klebsiella pneumoniae) | MIC90 (Klebsiella aerogenes) | MIC90 (Acinetobacter sp.) | MIC90 (Escherichia coli)
C[C@@](CCn1ccc(C2=CCCCC2)cc1=O)(C(=O)NO)S(C)(=O)=O | 0.5 µg/mL (≈ 1.36 µM) | 4.1 nM | 0.03 µg/mL (≈ 0.0814 µM) |  |  |  |  |  | 
C[C@@](CCn1ccc(-c2ccc(-c3ccccn3)cc2)cc1=O)(C(=O)NO)S(C)(=O)=O | 0.5 µg/mL (≈ 1.13 µM) | 1.3 nM | 0.015 µg/mL (≈ 0.034 µM) |  |  |  |  |  | 
CC(CCc1ccc(-c2ccccc2)nc1)(C(=O)NO)S(C)(=O)=O (racemic) | 8 µg/mL (≈ 23 µM) | 49 nM | 0.25 µg/mL (≈ 0.718 µM) |  |  |  |  |  | 
CC(CCc1ccc(-c2ccccc2)cn1)(C(=O)NO)S(C)(=O)=O (racemic) | 4 µg/mL (≈ 11.5 µM) | 13 nM | 0.125 µg/mL (≈ 0.359 µM) |  |  |  |  |  | 
C[C@@](CCn1ccc(-c2ccc(Cl)cc2F)cc1=O)(C(=O)NO)S(C)(=O)=O | 0.125 µg/mL (≈ 0.3 µM) | 1 nM | 0.008 µg/mL (≈ 0.0192 µM) | 1 µg/mL (≈ 2.4 µM) | 0.5 µg/mL (≈ 1.2 µM) | 1 µg/mL (≈ 2.4 µM) | 0.5 µg/mL (≈ 1.2 µM) | 64 µg/mL (≈ 154 µM) | 0.125 µg/mL (≈ 0.3 µM)
C[C@@](CCn1ccc(C#Cc2ccccc2)cc1=O)(C(=O)NO)S(C)(=O)=O | 0.25 µg/mL (≈ 0.644 µM) | 1.8 nM | 0.015 µg/mL (≈ 0.0386 µM) | 2 µg/mL (≈ 5.15 µM) | 0.125 µg/mL (≈ 0.322 µM) | 0.5 µg/mL (≈ 1.29 µM) | 0.25 µg/mL (≈ 0.644 µM) | > 64 µg/mL | 0.06 µg/mL (≈ 0.154 µM)
C[C@@](CCn1ccc(-c2ccc(Cl)c(F)c2F)cc1=O)(C(=O)NO)S(C)(=O)=O | 0.125 µg/mL (≈ 0.287 µM) | 0.52 nM | 0.008 µg/mL (≈ 0.0184 µM) | 0.25 µg/mL (≈ 0.575 µM) | 0.25 µg/mL (≈ 0.575 µM) | 0.5 µg/mL (≈ 1.15 µM) | 0.25 µg/mL (≈ 0.575 µM) | > 64 µg/mL | 0.06 µg/mL (≈ 0.138 µM)
C[C@@](CCn1ccc(-c2cc(F)ccc2F)cc1=O)(C(=O)NO)S(C)(=O)=O | 1 µg/mL (≈ 2.5 µM) | 4.4 nM | 0.03 µg/mL (≈ 0.0749 µM) |  |  |  |  |  | 
C[C@@](CCn1ccc(-c2ccc(F)c(F)c2F)cc1=O)(C(=O)NO)S(C)(=O)=O | 0.25 µg/mL (≈ 0.598 µM) | 1.5 nM | 0.015 µg/mL (≈ 0.0359 µM) | 1 µg/mL (≈ 2.39 µM) | 0.5 µg/mL (≈ 1.2 µM) | 2 µg/mL (≈ 4.78 µM) | 1 µg/mL (≈ 2.39 µM) | > 64 µg/mL | 0.5 µg/mL (≈ 1.2 µM)
C[C@@](CCn1ccc(-c2ccccc2)nc1=O)(C(=O)NO)S(C)(=O)=O | 16 µg/mL (≈ 43.8 µM) | 57 nM | 0.5 µg/mL (≈ 1.37 µM) |  |  |  |  |  | 
C[C@@](CCn1ccc(-c2ccc(-c3nccs3)cc2)cc1=O)(C(=O)NO)S(C)(=O)=O | 0.25 µg/mL (≈ 0.559 µM) | 1.1 nM | 0.015 µg/mL (≈ 0.0335 µM) |  |  |  |  |  | 
C[C@@](CCn1ccc(-c2cc(F)cc(F)c2)cc1=O)(C(=O)NO)S(C)(=O)=O | 1 µg/mL (≈ 2.5 µM) | 3.9 nM | 0.03 µg/mL (≈ 0.0749 µM) |  |  |  |  |  | 
COc1ccc(-c2ccn(CC[C@](C)(C(=O)NO)S(C)(=O)=O)c(=O)c2)cc1 | 0.125 µg/mL (≈ 0.317 µM) |  | 0.008 µg/mL (≈ 0.0203 µM) |  |  |  |  |  | 
C[C@@](CCn1cnc(-c2ccccc2)cc1=O)(C(=O)NO)S(C)(=O)=O | 1 µg/mL (≈ 2.74 µM) | 8.5 nM | 0.03 µg/mL (≈ 0.0821 µM) | 4 µg/mL (≈ 10.9 µM) | 16 µg/mL (≈ 43.8 µM) | 16 µg/mL (≈ 43.8 µM) | 16 µg/mL (≈ 43.8 µM) | 64 µg/mL (≈ 175 µM) | 8 µg/mL (≈ 21.9 µM)
C[C@@](CCn1ccc(-c2ccccc2)c(F)c1=O)(C(=O)NO)S(C)(=O)=O | 1 µg/mL (≈ 2.61 µM) | 4.9 nM | 0.015 µg/mL (≈ 0.0392 µM) |  |  |  |  |  | 
C[C@@](CCn1ccc(CCc2ccccc2)cc1=O)(C(=O)NO)S(C)(=O)=O | 2 µg/mL (≈ 5.1 µM) | 6 nM | 0.03 µg/mL (≈ 0.0764 µM) |  |  |  |  |  | 
C[C@@](CCn1ccc(-c2ccc(F)cc2)cc1=O)(C(=O)NO)S(C)(=O)=O | 0.25 µg/mL (≈ 0.654 µM) | 2.9 nM | 0.008 µg/mL (≈ 0.0209 µM) |  |  |  |  |  | 
C[C@@](CCn1ccc(-c2c(F)cccc2F)cc1=O)(C(=O)NO)S(C)(=O)=O | 0.5 µg/mL (≈ 1.25 µM) | 4.8 nM | 0.03 µg/mL (≈ 0.0749 µM) |  |  |  |  |  | 
CC(C)(C)c1ccn(CC[C@](C)(C(=O)NO)S(C)(=O)=O)c(=O)c1 | 8 µg/mL (≈ 23.2 µM) | 69 nM | 0.25 µg/mL (≈ 0.726 µM) |  |  |  |  |  | 
C[C@@](CCn1ccc(-c2cccnc2)cc1=O)(C(=O)NO)S(C)(=O)=O | > 64 µg/mL | > 100 nM | 2 µg/mL (≈ 5.47 µM) |  |  |  |  |  | 
COc1ccc(-c2ccn(CC[C@](C)(C(=O)NO)S(C)(=O)=O)c(=O)c2)cn1 | 2 µg/mL (≈ 5.06 µM) | 6.4 nM | 0.06 µg/mL (≈ 0.152 µM) | 16 µg/mL (≈ 40.5 µM) | 16 µg/mL (≈ 40.5 µM) | 32 µg/mL (≈ 80.9 µM) | 32 µg/mL (≈ 80.9 µM) | > 64 µg/mL | 8 µg/mL (≈ 20.2 µM)
O=C(O)c1cn(C2CC2)c2cc(N3CCNCC3)c(F)cc2c1=O [CIPROFLOXACIN] |  |  |  | 64 µg/mL (≈ 193 µM) | 32 µg/mL (≈ 96.6 µM) | 64 µg/mL (≈ 193 µM) | 1 µg/mL (≈ 3.02 µM) | 64 µg/mL (≈ 193 µM) | > 64 µg/mL
C[C@@](CCn1ccc(-c2ccc3ccccc3c2)cc1=O)(C(=O)NO)S(C)(=O)=O | 0.125 µg/mL (≈ 0.302 µM) | 1.2 nM | 0.008 µg/mL (≈ 0.0193 µM) | 1 µg/mL (≈ 2.41 µM) | 0.125 µg/mL (≈ 0.302 µM) | 0.5 µg/mL (≈ 1.21 µM) | 0.25 µg/mL (≈ 0.603 µM) | > 64 µg/mL | 0.06 µg/mL (≈ 0.145 µM)
Cc1cccc(C)c1-c1ccn(CC[C@](C)(C(=O)NO)S(C)(=O)=O)c(=O)c1 | 64 µg/mL (≈ 163 µM) | > 87 nM | 2 µg/mL (≈ 5.1 µM) |  |  |  |  |  | 
